Experimental findings from ChEMBL document CHEMBL5030554, “Design, synthesis and biological evaluation of novel (E)-2-benzylidene-N-(3-cyano-4,5,6,7-tetrahydrobenzo[b]thiophen-2-yl)hydrazine-1-carboxamide derivatives as α-glucosidase inhibitors” (Bioorg Med Chem Lett, 2021) are described below.

Usually inhibition stands for the relative decrease from the control value, in per cent. As a reminder, the IC50 is the concentration needed to halve the response being measured.

One data set relates to Saccharomyces cerevisiae. Nature of the data set: Inhibition of Saccharomyces cerevisiae alpha-glucosidase assessed as decrease in release of p-nitrophenol at 100 uM using pNPG as substrate preincubated for 15 min followed by substrate addition and measured after 5 mins by spectrophotometric method relative to control. The note with it: time 20.0 min.
A short description of data set [1]: Inhibition of Saccharomyces cerevisiae alpha-glucosidase assessed as decrease in release of p-nitrophenol using pNPG as substrate preincubated for 15 min followed by substrate addition and measured after 5 mins by spectrophotometric method.
The species named for data set [2] is Rattus norvegicus. Nature of the data set: Hypoglycemic activity in sucrose-treated Sprague-Dawley rat assessed as reduction in blood glucose level measured after 30 mins by oral sucrose tolerance test. It is filed as functional, organism-based.
Data set [3] is filed under the species Homo sapiens. Nature of the data set: Binding affinity to alpha-glucosidase (unknown origin) assessed as quenching of intrinsic tryptophan fluorescence of the enzyme by FRET assay.
The species named for data set [4] is Homo sapiens. In words: Non-competitive inhibition of alpha-glucosidase (unknown origin) assessed as decrease in Vmax with constant Km using varying levels of PNP glycoside as substrate preincubated for 30 mins followed by substrate addition and measured for 60 seconds by Lineweaver-Burk plot analysis.
Data set [5] in a line: Cytotoxicity against human L02 cells assessed as cell viability at 100 uM by MTT assay relative to control. As to conditions: read-out: Activity. Format: cell-based.
A short description of data set [6]: Cytotoxicity against human HepG2 cells assessed as cell viability at 100 uM by MTT assay relative to control. The note with it: read-out: Activity. It is filed as cell-based. In general terms: Tetrazolium assays rely on reduction of a dye to a coloured formazan, in cell work by metabolically active cells.
The species named for data set [7] is Rattus norvegicus. In words: Hypoglycemic activity in sucrose-treated Sprague-Dawley rat assessed as reduction in blood glucose AUC measured after 2 hrs by oral sucrose tolerance test. Format: functional, organism-based.

Molecules are shown by their SMILES. The source made the active and inactive calls. No cut-off for these calls is given here.

`N#Cc1c(NC(=O)N/N=C/c2cccc(OCc3ccccc3)c2)sc2c1CCCC2`: the inhibition in the data set with Saccharomyces cerevisiae is 40.5%. For the compound `Cc1cc(C)c(/C=N/NC(=O)Nc2sc3c(c2C#N)CCCC3)c(C)c1`, in data set [1], the half-maximal inhibitory concentration (IC50) worked out at 49.6 µM. Further, the inhibition in the data set with Saccharomyces cerevisiae stood at 52.3%. As for `CN(C)c1ccc(/C=N/NC(=O)Nc2sc3c(c2C#N)CCCC3)cc1`, the IC50 in data set [1] was determined as 46.4 µM. Besides, the inhibition in the data set on Saccharomyces cerevisiae worked out at 67.2%.

`N#Cc1c(NC(=O)N/N=C/c2ccc([N+](=O)[O-])cc2)sc2c1CCCC2`: the IC50 in data set [1] was 67.4 µM. The inhibition in the data set on Saccharomyces cerevisiae is 57.6%. On to `N#Cc1c(NC(=O)N/N=C/c2ccccc2O)sc2c1CCCC2`, for which the inhibition in the data set on Saccharomyces cerevisiae was 44.9%.

Turning to `Cc1ccc(/C=N/NC(=O)Nc2sc3c(c2C#N)CCCC3)c(O)c1`, the inhibition with Saccharomyces cerevisiae is 34.9%. With `Cc1cccc(/C=N/NC(=O)Nc2sc3c(c2C#N)CCCC3)c1C`, the IC50 in data set [1] was 49.2 µM. Further, in the data set with Saccharomyces cerevisiae, the inhibition was 59.5%. Take `N#Cc1c(NC(=O)N/N=C/c2ccccc2)sc2c1CCCC2`: the inhibition in the data set on Saccharomyces cerevisiae was 31.4%. As to `C[C@H]1O[C@H](O[C@H]2[C@H](O)[C@@H](O)[C@@H](O[C@H]3[C@H](O)[C@@H](O)C(O)O[C@@H]3CO)O[C@@H]2CO)[C@H](O)[C@@H](O)[C@@H]1N[C@H]1C=C(CO)[C@@H](O)[C@H](O)[C@H]1O` (stereo partly drawn) [ACARBOSE], the IC50 in data set [1] amounted to 440 µM. In addition, in the data set listed under Rattus norvegicus [2], the outcome was Active. Take `N#Cc1c(NC(=O)N/N=C/c2cccc(O)c2O)sc2c1CCCC2`: the concentration for half-maximal inhibition (IC50) in data set [1] stood at 29.5 µM. For the same compound, the inhibition in the data set with Saccharomyces cerevisiae was found to be 68.2%. For `Cc1ccc(/C=N/NC(=O)Nc2sc3c(c2C#N)CCCC3)cc1`, the half-inhibitory concentration (IC50) in data set [1] is 29.8 µM. Also, the inhibition with Saccharomyces cerevisiae was found to be 85.1%. With `Cc1cc(/C=N/NC(=O)Nc2sc3c(c2C#N)CCCC3)cc(C)c1O`, the inhibition with Saccharomyces cerevisiae stood at 35.4%. On to `Cc1cccc(/C=N/NC(=O)Nc2sc3c(c2C#N)CCCC3)c1O`, for which the inhibition in the data set on Saccharomyces cerevisiae worked out at 29.5%. As to `CCN(CC)c1ccc(/C=N/NC(=O)Nc2sc3c(c2C#N)CCCC3)c(O)c1`, the IC50 in data set [1] turned out to be 32.5 µM. The inhibition in the data set with Saccharomyces cerevisiae came out at 64.2%. As for `COc1cc(/C=N/NC(=O)Nc2sc3c(c2C#N)CCCC3)cc(OC)c1`, the inhibition with Saccharomyces cerevisiae was found to be 36.4%. Same read-out and setting: for `COc1cc(/C=N/NC(=O)Nc2sc3c(c2C#N)CCCC3)cc(OC)c1O` the value was 0.7%; for `N#Cc1c(NC(=O)N/N=C/c2cccc(O)c2)sc2c1CCCC2`, 48.4%; for `N#Cc1c(NC(=O)N/N=C/c2ccccc2OCc2ccccc2)sc2c1CCCC2`, 48%.

Take `N#Cc1c(NC(=O)N/N=C/c2ccc(O)cc2)sc2c1CCCC2`: the IC50 in data set [1] stood at 20.7 µM. The inhibition in the data set with Saccharomyces cerevisiae was found to be 81.7%. With `N#Cc1c(NC(=O)N/N=C/c2ccc3c(c2)OC=CO3)sc2c1CCCC2`, the inhibition with Saccharomyces cerevisiae amounted to 35.7%.

In the case of `CCc1ccc(/C=N/NC(=O)Nc2sc3c(c2C#N)CCCC3)cc1`, the half-maximal inhibitory concentration (IC50) in data set [1] came out at 25.4 µM. For the same compound, in the data set with Saccharomyces cerevisiae, the inhibition is 89.5%. For `N#Cc1c(NC(=O)N/N=C/c2ccc(O)c(O)c2)sc2c1CCCC2`, in data set [1], the half-inhibitory concentration (IC50) came to 9.26 µM. Besides, in the data set with Saccharomyces cerevisiae, the inhibition worked out at 86.3%. For the same compound, the Activity result in the data set listed under Homo sapiens [3] is “Dose-Dependent Effect”. Also, the inhibition entry in the data set listed under Homo sapiens [4] is “Active”. Moreover, the viability at 100 µM in data set [5] amounted to 96%; in data set [6], 92.7%. The outcome in the data set listed under Rattus norvegicus [2] and in the data set filed under Rattus norvegicus [7] was Active.

For the compound `COC(=O)c1ccc(/C=N/NC(=O)Nc2sc3c(c2C#N)CCCC3)cc1`, in the data set with Saccharomyces cerevisiae, the inhibition amounted to 7.69%. As for `N#Cc1c(NC(=O)N/N=C/c2ccc(N(c3ccccc3)c3ccccc3)cc2)sc2c1CCCC2`, the IC50 in data set [1] worked out at 13.5 µM. In addition, the inhibition in the data set on Saccharomyces cerevisiae came to 89.7%. The matching figures for `CCN(CC)c1ccc(/C=N/NC(=O)Nc2sc3c(c2C#N)CCCC3)cc1`: 32.1 µM and 77.3%. For the compound `N#Cc1c(NC(=O)N/N=C/c2cc(O)cc(O)c2)sc2c1CCCC2`, in data set [1], the 50% inhibitory concentration (IC50) was 11.4 µM. Besides, the inhibition in the data set with Saccharomyces cerevisiae came out at 89.5%. In the data set listed under Homo sapiens [3], the Activity result is “Dose-Dependent Effect”. Besides, the inhibition entry in the data set listed under Homo sapiens [4] is “Active”. The viability at 100 µM in data set [5] turned out to be 96.6%; in data set [6], 93.8%. In addition, the result in the data set listed under Rattus norvegicus [2] and in the data set filed under Rattus norvegicus [7] was Active. Consider `N#Cc1c(NC(=O)N/N=C/c2ccc(OCc3ccccc3)cc2)sc2c1CCCC2`, for which the IC50 in data set [1] was 26.5 µM. The inhibition in the data set with Saccharomyces cerevisiae was determined as 66.6%. The matching figures for `Cc1ccc(/C=N/NC(=O)Nc2sc3c(c2C#N)CCCC3)cc1C`: 38.9 µM and 74.8%. For the compound `N#Cc1c(NC(=O)NCc2ccccc2)sc2c1CCCC2`, the IC50 in data set [1] turned out to be 63.1 µM.

For `N#Cc1c(NC(=O)N/N=C/c2ccc(O)c(O)c2O)sc2c1CCCC2`, in data set [1], the IC50 worked out at 17.7 µM. Besides, the inhibition in the data set on Saccharomyces cerevisiae was found to be 85.9%. Regarding `N#Cc1c(NC(=O)N/N=C/c2ccc(N3CCCC3)cc2)sc2c1CCCC2`, in data set [1], the half-maximal inhibitory concentration (IC50) is 68.4 µM. Also, the inhibition in the data set with Saccharomyces cerevisiae is 70.7%. For the compound `N#Cc1c(NC(=O)N/N=C/c2ccc(O)cc2O)sc2c1CCCC2`, in data set [1], the half-inhibitory concentration (IC50) came to 33.8 µM. Further, the inhibition in the data set on Saccharomyces cerevisiae worked out at 63.1%. In the case of `COc1cccc2c1C(=O)c1c(O)c3c(c(O)c1C2=O)C[C@@](O)(C(=O)CO)C[C@@H]3O[C@H]1C[C@H](N)[C@H](O)[C@H](C)O1` [DOXORUBICIN], the viability at 100 µM in data set [5] and in data set [6] was 4% each time. As to `COc1ccc(/C=N/NC(=O)Nc2sc3c(c2C#N)CCCC3)cc1O`, in the data set on Saccharomyces cerevisiae, the inhibition came out at 27.8%. Turning to `N#Cc1c(NC(=O)N/N=C/c2ccc(Oc3ccccc3)cc2)sc2c1CCCC2`, the IC50 in data set [1] amounted to 21.8 µM. For the same compound, the inhibition in the data set on Saccharomyces cerevisiae was found to be 72.5%.

In the case of `COc1ccc(/C=N/NC(=O)Nc2sc3c(c2C#N)CCCC3)cc1`, the inhibition in the data set on Saccharomyces cerevisiae turned out to be 18.8%.

As to `Cc1cc(/C=N/NC(=O)Nc2sc3c(c2C#N)CCCC3)ccc1O`, the IC50 in data set [1] was found to be 54.4 µM. Also, the inhibition in the data set with Saccharomyces cerevisiae was 72.2%. Take `CC(C)c1ccc(/C=N/NC(=O)Nc2sc3c(c2C#N)CCCC3)cc1`: the concentration for half-maximal inhibition (IC50) in data set [1] worked out at 48.6 µM. For the same compound, the inhibition with Saccharomyces cerevisiae amounted to 64.2%.
